{"source": "paper PMC11500008", "about": "“Novel quinazolin-4-one based derivatives bearing 1,2,3-triazole and glycoside moieties as potential cytotoxic agents through dual EGFR and VEGFR-2 inhibitory activity” (Scientific Reports, 2024)", "origin": "cited, not measured here", "tested_on": "MCF-7 cell line", "design": "method as in PMID 37453330", "conditions": "cellular activity; read-out: IC50 against MCF-7 cell line; cited from earlier work", "note": "pIC50: −log10 of the molar value.", "data": [{"compound": "COc1ccc(Cc2nnc(COc3ncnc4ccccc34)o2)cc1OC", "note": "[IV]", "values": [{"measurement": "pIC50", "value": 6.64}]}]}
